From patent publication EP0835125B1, “CD4-DERIVED PEPTIDES THAT INHIBIT IMMUNE RESPONSES” (THOMAS JEFFERSON UNIVERSITY, priority 1995, dated 2004) come the findings set out here.

“And” between values parts separate entries of the source, which are not always exact repeats. Equal values may be shown once. Read-outs that look alike come from different tables or passages of the source. Bridge positions count the residues as written; N and C are the ends. Peptide text beside a SMILES is read from it. Some results are limits rather than exact numbers.

One assay relates to EAE. Description: EAE inhibition in vivo, SJL EAE model, daily severity score on 0-5 scale. Details: species or system mice. To be noted: for effect on EAE in mice, in words: b73: 0.5 mg dose i.v. 12 days after immunization. Here is the method:
The C-C' loop peptides were initially tested for efficacy in the SJL EAE model. In untreated animals, a high incidence of disease was observed 15-22 days after two s.c. inoculations of 1 mg of crude murine spinal cord homogenate in complete Freund's adjuvant. The severity of the disease was scored daily using the established 0-5 scale that describes the level of ascending paresis, Korngold, R., et al., 1986, Immunogenetics 24:309-315. The level of the mean EAE severity grade of mice for the untreated control group reached a maximum of 2.0. […] Also shown are the results of groups of mice that received the rD-mPGPtide, a mimic of residues 86-104 of murine homolog of CD4, which was described in Jameson et al. 1994, Nature 368:744-746.

For assay [1], the system named is interaction of CD4 and MHC, class II. Description: Rosetting of Raji cells and CD4-transiently transfected COS-7 cells, microscopic count. The conditions noted are these: 200 µM, three independent assays. Type of assay: cell-based, human. Here is the method: The cyclic peptide CNSNQIC (SEQ ID NO:45) at 200 µM was tested to determine if the peptide inhibited the interaction of CD4 and MHC, class II. The test was performed by rosetting Raji cells and CD4-transiently transfected COS-7 cells. See: Moebius, U. et al., 1992, Proc. Natl. Acad. Sci. 89:12008-12; Moebius, U., et al., 1993, Proc. Natl. Acad. Sci. 90:8259-63.
The sequence of human CD4 cDNA is given in Maddon, P.J. et al., 1985, CELL 42:93-104, which sequence is hereby incorporated by reference. […]
For transfection of COS-7 cells, a CD4-expression plasmid T4-pcDNA3, was constructed by subcloning the 3.0 Kb Eco R1 fragment of T4-pMV7 into the EcoRI site of the mammalian expression vector pcDNA3 (INVITROGEN). […] Rosette formation between Raji cells and transfected COS-7 cells was scored microscopically at 100-fold magnification. The number of rosette containing more than five Raji cells was counted in 10 random optical fields in each individual well; 300-400 rosettes per well were counted as the positive control for rosette formation without any inhibition in the absence of any chemicals. The inhibition activity for rosette formation for each chemical was determined by the ratio of the number of rosettes obtained in the presence of this chemical to the number of rosettes in the positive control. […]

Assay [2] has the same test system. Description: Rosetting of Cr51-labelled Raji cells to stably T4-pMV7-transfected COS-1 cells. Type of assay: cell-based, human. To be noted: 200 µM. The text has this:
In a second construct, the T4-pMV7 plasmid, which contains a Tn5 neo selectable marker, was introduced into Cos-1 cells by electroporation. Stably transfected cells were isolated by selection with G-418 and the resultant transformants expressed CD4.
Raji cells were labelled with Cr^51 and rosetted to the stably T4-pMV7-transfected COS-1 cells.

Assay [3] deals with responder cell alloreactive proliferation (human T cell). To be noted: for inhibition (suppressive effect on human T cell activation): 3 h, 100 µM; for activity in human MLR / human T cell proliferation in vitro, in words: in b95 the words describe the cyclic peptide relative to the linear peptides KNSNQI, KNSNQ, NSNQI (linear ones less active).
Protocol: For this assay, fresh peripheral blood lymphocytes from two different donors are co-cultured; the cells of one donor were irradiated and served as stimulators. Proliferation of these activated T cells was measured by measuring the incorporation of ^3H-thymidine at various timepoints.
For human MLR, 50 ml of whole blood was collected into anti-coagulant (ACD, acid citrate dextrose) containing tubes. In 50 ml conical tubes, 20 ml of blood was layered over 20 ml Ficoll 1077 (Sigma Chemical Co., St. Louis, MO) and centrifuged at 2000 rpm for 35-40 min at 15-20°C. Buffy coats and serum were collected in 3x volume of PBS centrifuged at 1500 rpm for 15 min at 15-20°C. Supernatants were discarded, cells were washed 2x in 50 ml PBS and resuspended in RPMI supplemented with 10% heat-inactivated (56°, 30 min) human serum (cat# H4522, Sigma), 50 IU/ml pen/strep and 2mM (1% of 200 mM stock) L-glutamine (both from BioWhitaker). Lymphocyte yield varied between 5-8x10^7.
In a 96-well flat bottom plate 1 x 10^5 responders were plated with 2 x 10^5 irradiated (3000 rad) simulators/well (added in 100 µl each), and incubated for 6, 7 or 8 days at 37°C, 7% CO2. Peptide analogues were added to quadruplicate wells, at a concentration of 100 µM (5 mg/ml stock) or titrations thereof, immediately after cells were plated. For radiolabelling, the cells were incubated with 1 µCi [^3H]TdR/well (25 µl) (diluted from 1mCi/ml stock, Amersham) for the final 6 hours of incubation. Cells were harvested using a fiberfilter cell harvester (e.g., Harvester 96, Tomtec) and counted in a Beta Counter of Beta plate reader (1205 BS Betaplate Liquid Scintillation Counter, Wallac) with scintillation fluid.
Assay [4] has as its target MHC, class II, gene products on Raji cells (human). Briefly: rosette assay, Cr51-labelled Raji cells (MHC class II) on stably T4-pMV7-transfected COS-1 cells (CD4), peptide at 200 uM.
Assay [5] shares this target. Briefly: rosette assay, Raji cells (MHC class II) on CD4-transiently transfected COS-7 cells, peptide at 200 uM, blocks CD4/MHC class II interaction; independent assay 1 of 3.
For assay [6] the target is unchanged. Briefly: rosette assay, Raji cells (MHC class II) on CD4-transiently transfected COS-7 cells, peptide at 200 uM, blocks CD4/MHC class II interaction; independent assay 2 of 3.
The target is the same in assay [7]. Briefly: rosette assay, Raji cells (MHC class II) on CD4-transiently transfected COS-7 cells, peptide at 200 uM, blocks CD4/MHC class II interaction; independent assay 3 of 3.
Setting [8] is: listed as CNSNQIC (SEQ ID NO:44).

In the case of `CC[C@H](C)[C@@H]1NC(=O)[C@H](CCC(N)=O)NC(=O)[C@H](CC(N)=O)NC(=O)[C@H](CO)NC(=O)[C@H](CC(N)=O)NC(=O)[C@@H](N)CSSC[C@@H](C(=O)O)NC1=O` [CNSNQIC (SEQ ID NO:45), CNSNQIC] (H-CNSNQIC-OH; disulfide 1-7 (inferred); N-terminus and C-terminus assumed), the “maximum severity level (mean EAE severity grade)” value in the assay on EAE (0.5 mg i.v. on day 12, 0-5 scale, untreated control group maximum 2.0) is 1.0. Moreover, the “effect on EAE in mice, in words” value in the assay on EAE is given as “effective to ameliorate EAE”; in the assay with EAE (setting [8]) it was “inhibitor of EAE in mice”. Moreover, the “inhibition of the rosettes” value in assay [1] is 57% and 63% and 51%. Also, the inhibition of rosetting result in assay [2] is listed as “greater than 75%”. Further, the “inhibition (suppressive effect on human T cell activation)” value in assay [3] was determined as 54.4%. In addition, the “activity in human MLR / human T cell proliferation in vitro, in words” value in assay [3] was “significantly higher activity than the linear peptides”; in assay [3] (setting [8]), “highly potent inhibitor of human T cell proliferation”.

`CC[C@H](C)[C@H](NC(=O)[C@H](CCC(N)=O)NC(=O)[C@H](CC(N)=O)NC(=O)[C@H](CO)NC(=O)[C@H](CC(N)=O)NC(=O)[C@@H](N)CS)C(=O)N[C@@H](CS)C(=O)O` [linear CNSNQIC, CNSNQIC] (H-CNSNQIC-OH): the “inhibition (suppressive effect on human T cell activation)” value in assay [3] is 32.2%.

As to cyclic peptide CNSNQIC (SEQ ID NO:45), in assay [4], the percent inhibition of rosetting is > 75%. The percent inhibition of rosettes in assay [5] was determined as 57%; in assay [6], 63%; in assay [7] it was 51%.
